Format in all cases: cell-based
For experiment [1], the system named is C. albicans ATCC 9021. In words: Fungicidal activity: checkerboard combined with Afnor membrane filtration, 5 min contact (Example 2, Table 3). To be noted: Candida albicans, ATCC9021, 5 min, pH 9, read-out: Mg; for log reduction at 2 %: product alone at 2 %. Here is the method:
(§1) La technique utilisée est originale car elle utilise à la fois le principe de la technique de l'échiquer et celui de la norme Afnor par filtration sur membrane relative à la fongicidie avec un temps de contact germe-molécules de 5 minutes.
(§2) C'est une macro-méthode qui a donc été réalisée ici avec validations à chaque essai du témoin solvant des molécules (Tween® 20 %, éthanol 17 % dans l'eau distillée).
(§3) L'association de l'octopirox avec le crotamiton a été testé selon la méthodologie de l'exemple 1 sur une souche Pityrosporium ovale éco-R et C. albicans ATCC 9021.
(§4) Le même solvant a été utilisé et validé à chaque essai comme le spécifie la norme Afnor.
Ces Résultats ont été confirmés sur une levure de référence Afnor (C.albicans ATCC 9021). Les résultats sont reportés dans le tableau 3.
(§5) Les essais de l'exemple 2 ont été réalisés avec un pH plus basique = 9.

In experiment [2] the test system is Pityrosporium ovale sauvages dont une éco-R. In words: Fungicidal activity: checkerboard combined with Afnor membrane filtration, 5 min contact (Example 1). The note with it: pH about 8, read-out: Mg : moyenne géométrique du Log 10 de la réduction du nombre de germes; for log reduction at 2 %: product alone at 2 % (m/v); for log reduction at 4 %: product alone at 4 % (m/v). Here is the method:
CMF définissant la concentration minimale de fongicide pour laquelle on obtient une diminution de 4.Log 10 de l'inoculum ensemencé en 5 minutes de contact à 20°C.
Des souches de Malassezia furfur (Pityrosporum ovale) ont été testées pour leur sensibilité vis-à-vis des principes actifs seuls ou bien en association selon l'invention.
Les souches sont issues du Laboratoire de Parasitologie du Centre Hospitalier Régional de Rangueil de TOULOUSE (France) et une souche est éconazole résistante (éco-R). Elles ont été cultivées lors des essais sur milieu Dixon solide.
as §1, §2
Ce solvant inhibe légèrement l'activité de la ciclopiroxolamine, et il faut donc s'attendre à de meilleurs résultats en pratique. Les autres témoins sont celui de la vigueur de la souche et de l'efficacité des produits seuls, soit : - ciclopiroxolamine 4 % - crotamiton 4 %
Le tableau 1 représente les moyennes géométiques de la réduction logarithmique sur deux Pityrosporium ovale sauvages dont une éco-R, le nombre d'essais ainsi que le pourcentage d'efficacité.
La norme Afnor considère qu'il y a fongicidie pour une réduction de 4 Log 10 de l'inoculum après 15 minutes de contact.
Le pH de l'ensemble de ces études se situe autour de 8.

Experiment [3] relates to P. ovale éco-R. In words: Fungicidal activity: checkerboard combined with Afnor membrane filtration, 5 min contact (Example 2, Table 2). The note with it: Pityrosporium ovale, pH 9, read-out: Mg; for log reduction at 2 %: product alone at 2 %. The method, then: as §1, §2, §3
Le tableau 2 représente les résultats obtenus sur P. ovale éco-R après cinq minutes de contact pour l'association : • crotamiton 1 % - octopirox 1 % pour lequel nous avons 100 % d'efficacité • alors que les produits seuls à double ou quadruple concentrations sont moins actifs.
as §4, §5

Drawing on patent EP0771187B1, “NOVEL COMBINATION PRODUCT COMPRISING AN ANTIFUNGAL AGENT AND CROTAMITON AS AN ANTIFUNGAL ACTIVITY ENHANCER AND DERMATOLOGICAL OR COSMETIC COMPOSITIONS COMPRISING SAME” (Pierre Fabre Dermo-Cosmetique, priority 1994, dated 1996), this text covers log reduction for 3 compounds.

Regarding `CC=CC(=O)N(CC)c1ccccc1C` [Crota, N-éthyl-N-O-tolylcrotonamide], the figures for the log reduction at 2 % in experiment [1], in experiment [2] and in experiment [3] were 2.43, 0.77 and 1.59, respectively. In addition, the log reduction at 4 % in experiment [1] (product alone at 4 %) is 4.95; in experiment [2] it was 3.77; in experiment [3] (product alone at 4 %), 3.26. The log reduction at 1 % in experiment [2] (product alone at 1 % (m/v)) was 0.03.

With `Cc1cc(CC(C)CC(C)(C)C)n(O)c(=O)c1` (stereo not drawn) [Octo, octopirox], the log reduction at 1 % in experiment [1] (product alone at 1 %) was 0.36. Moreover, the log reduction at 2 % was 3.18 in experiment [1] and 1.85 in experiment [3].

For the compound `Cc1cc(C2CCCCC2)n(O)c(=O)c1` [CPO, ciclopirox olamine], in experiment [2], the log reduction at 2 % was found to be 0.43 and the log reduction at 4 % amounted to 2.05.
